Experimental data from patent US20040121028A1, “Plant based agents as bioavailability / bioefficacy enhancers for drugs and nutraceuticals” (COUNCIL OF SCIENTIFIC AND INDUSTRIAL RESEARCH, priority 2002, published 2004).

Assay: Enhancement in bioavailability of drugs by the Cuminum cyminum active molecule / fraction
[1] = drug given with Active molecule (3′,5-dihydroxy flavone-7-O-β-D-galacturonide-4′-O-β-D-glucopyranoside)
[2] = drug given with Fraction from Cuminum cyminum

Structure (SMILES) | % Enhancement in bioavailability [1] | % Enhancement in bioavailability [2]
O=c1[nH]cc(F)c(=O)[nH]1 [5-Fluorouracil] | 110% | 240%
Nc1nc2c(ncn2COCCO)c(=O)[nH]1 [Acyclovir] | 89% | 110%
Cc1nnc2n1-c1ccc(Cl)cc1C(c1ccccc1)=NC2 [Alprazolam] | 70% | 75%
NCC[C@H](O)C(=O)N[C@@H]1C[C@H](N)[C@@H](O[C@H]2O[C@H](CN)[C@@H](O)[C@H](O)[C@H]2O)[C@H](O)[C@H]1O[C@H]1O[C@H](CO)[C@@H](O)[C@H](N)[C@H]1O [Amikacin] | 76% | 87%
CCOC(=O)C1=C(COCCN)NC(C)=C(C(=O)OC)C1c1ccccc1Cl (stereo not drawn) [Amlodipine] | 80% | 130%
CC1(C)S[C@@H]2[C@H](NC(=O)[C@H](N)c3ccc(O)cc3)C(=O)N2[C@H]1C(=O)O [Amoxycillin] | 68% | 105%
C[C@@H]1[C@H](O)[C@@H](C)/C=C/C=C/C=C/C=C/C=C/C=C/C=C/[C@H](O[C@@H]2O[C@H](C)[C@@H](O)[C@H](N)[C@@H]2O)C[C@@H]2O[C@](O)(C[C@@H](O)C[C@@H](O)[C@H](O)CC[C@@H](O)C[C@@H](O)CC(=O)O[C@H]1C)C[C@H](O)[C@H]2C(=O)O [Amphotericin B] | 95% | 90%
CC[C@H]1OC(=O)[C@H](C)[C@@H](O[C@H]2C[C@@](C)(OC)[C@@H](O)[C@H](C)O2)[C@H](C)[C@@H](O[C@@H]2O[C@H](C)C[C@H](N(C)C)[C@H]2O)[C@](C)(O)C[C@@H](C)CN(C)[C@H](C)[C@@H](O)[C@]1(C)O [Azithromycin] | 82% | 115%
CN(Cc1cc(Br)cc(Br)c1N)C1CCCCC1 [Bromhexine] | – | 35%
CC1=C(C(=O)O)N2C(=O)[C@@H](NC(=O)[C@H](N)c3ccc(O)cc3)[C@H]2SC1 [Cefadroxil] | 85% | 120%
CO/N=C(\C(=O)N[C@@H]1C(=O)N2C(C(=O)O)=C(CSc3nc(=O)c(O)nn3C)CS[C@H]12)c1csc(N)n1 [Cefatrioxone] | 75% | 100%
CN/C(=N/CCSCc1nc[nH]c1C)NC#N [Cimetidine] | 76% | 70%
N[C@@H]1CON=C1O [Cycloserine] | 85% | 110%
Nc1ccc(S(=O)(=O)c2ccc(N)cc2)cc1 [Dapsone] | 67% | 93%
O=C(O)Cc1ccccc1Nc1c(Cl)cccc1Cl [Diclofenac] | 105% | 125%
COc1cccc2c1C(=O)c1c(O)c3c(c(O)c1C2=O)C[C@@](O)(C(=O)CO)C[C@@H]3O[C@H]1C[C@H](N)[C@H](O)[C@H](C)O1 [Doxorubicin] | 78% | 90%
CC[C@H]1OC(=O)[C@H](C)[C@@H](O[C@H]2C[C@@](C)(OC)[C@@H](O)[C@H](C)O2)[C@H](C)[C@@H](O[C@@H]2O[C@H](C)C[C@H](N(C)C)[C@H]2O)[C@](C)(O)C[C@@H](C)C(=O)[C@H](C)[C@@H](O)[C@]1(C)O [Erythromycin] | 70% | 80%

Structure (SMILES) | % Enhancement in bioavailability [1] | % Enhancement in bioavailability [2]
CCc1cc(C(N)=S)ccn1 [Ethionamide] | 120% | 110%
O=C(CCCN1CCC(O)(c2ccc(Cl)cc2)CC1)c1ccc(F)cc1 [Haloperidol] | 72% | 60%
NNC(=O)c1ccncc1 [Isoniazid] | – | 30%
CC(=O)N1CCN(c2ccc(OCC3COC(Cn4ccnc4)(c4ccc(Cl)cc4Cl)O3)cc2)CC1 (stereo not drawn) [Ketoconazole] | 77% | 85%
CN(Cc1cnc2nc(N)nc(N)c2n1)c1ccc(C(=O)N[C@@H](CCC(=O)O)C(=O)O)cc1 [Methotrexate] | 95% | 140%
CS(=O)(=O)Nc1ccc([N+](=O)[O-])cc1Oc1ccccc1 [Nimesulide] | 90% | 115%
CCn1cc(C(=O)O)c(=O)c2cc(F)c(N3CCNCC3)cc21 [Norfloxacin] | 45% | 55%
COc1ccc2[nH]c([S+]([O-])Cc3ncc(C)c(OC)c3C)nc2c1 (stereo not drawn) [Omeprazole] | 72% | 87%
CN1C(C(=O)Nc2ccccn2)=C(O)c2ccccc2S1(=O)=O [Piroxicam] | 76% | 100%
CC(C)NCC(O)COc1cccc2ccccc12 (stereo not drawn) [Propranolol] | 85% | 140%
CNC(=C[N+](=O)[O-])NCCSCc1ccc(CN(C)C)o1 [Ranitidine] | 95% | 95%
CO[C@H]1/C=C/O[C@@]2(C)Oc3c(C)c(O)c4c(O)c(c(/C=N/N5CCN(C)CC5)c(O)c4c3C2=O)NC(=O)/C(C)=C\C=C\[C@H](C)[C@H](O)[C@@H](C)[C@@H](O)[C@@H](C)[C@H](OC(C)=O)[C@@H]1C [Rifampicin] | 90% | 170%
CS(=O)(=O)c1ccc(C2=C(c3ccccc3)C(=O)OC2)cc1 [Rofecoxib] | 43% | 70%
CC(C)(C)NCC(O)c1ccc(O)c(CO)c1 (stereo not drawn) [Salbutamol] | 98% | 75%
C=CC[C@@H]1/C=C(\C)C[C@H](C)C[C@H](OC)[C@H]2O[C@@](O)(C(=O)C(=O)N3CCCC[C@H]3C(=O)O[C@H](/C(C)=C/[C@@H]3CC[C@@H](O)[C@H](OC)C3)[C@H](C)[C@@H](O)CC1=O)[C@H](C)C[C@@H]2OC [Tacrolimus] | 90% | 110%
Cn1c(=O)c2[nH]cnc2n(C)c1=O [Theophylline] | 75% | 95%
Cc1cn([C@H]2C[C@H](N=[N+]=[N-])[C@@H](CO)O2)c(=O)[nH]c1=O [Zidovudine] | 120% | 135%
